Each structure is given as a SMILES string. Where two headings read alike, the source gives them in different places.

The source of these data is patent publication US20250020635A1, “ASSAY METHODS AND USES THEREOF FOR SCREENING ALZHEIMER'S DISEASE TREATMENT COMPOUNDS” (priority 2023, published 2025).

Series [1] concerns the target T1, His-PLCγ2 protein (Homo sapiens, UniProt P16885).
T1 sequence (P16885 1-1265): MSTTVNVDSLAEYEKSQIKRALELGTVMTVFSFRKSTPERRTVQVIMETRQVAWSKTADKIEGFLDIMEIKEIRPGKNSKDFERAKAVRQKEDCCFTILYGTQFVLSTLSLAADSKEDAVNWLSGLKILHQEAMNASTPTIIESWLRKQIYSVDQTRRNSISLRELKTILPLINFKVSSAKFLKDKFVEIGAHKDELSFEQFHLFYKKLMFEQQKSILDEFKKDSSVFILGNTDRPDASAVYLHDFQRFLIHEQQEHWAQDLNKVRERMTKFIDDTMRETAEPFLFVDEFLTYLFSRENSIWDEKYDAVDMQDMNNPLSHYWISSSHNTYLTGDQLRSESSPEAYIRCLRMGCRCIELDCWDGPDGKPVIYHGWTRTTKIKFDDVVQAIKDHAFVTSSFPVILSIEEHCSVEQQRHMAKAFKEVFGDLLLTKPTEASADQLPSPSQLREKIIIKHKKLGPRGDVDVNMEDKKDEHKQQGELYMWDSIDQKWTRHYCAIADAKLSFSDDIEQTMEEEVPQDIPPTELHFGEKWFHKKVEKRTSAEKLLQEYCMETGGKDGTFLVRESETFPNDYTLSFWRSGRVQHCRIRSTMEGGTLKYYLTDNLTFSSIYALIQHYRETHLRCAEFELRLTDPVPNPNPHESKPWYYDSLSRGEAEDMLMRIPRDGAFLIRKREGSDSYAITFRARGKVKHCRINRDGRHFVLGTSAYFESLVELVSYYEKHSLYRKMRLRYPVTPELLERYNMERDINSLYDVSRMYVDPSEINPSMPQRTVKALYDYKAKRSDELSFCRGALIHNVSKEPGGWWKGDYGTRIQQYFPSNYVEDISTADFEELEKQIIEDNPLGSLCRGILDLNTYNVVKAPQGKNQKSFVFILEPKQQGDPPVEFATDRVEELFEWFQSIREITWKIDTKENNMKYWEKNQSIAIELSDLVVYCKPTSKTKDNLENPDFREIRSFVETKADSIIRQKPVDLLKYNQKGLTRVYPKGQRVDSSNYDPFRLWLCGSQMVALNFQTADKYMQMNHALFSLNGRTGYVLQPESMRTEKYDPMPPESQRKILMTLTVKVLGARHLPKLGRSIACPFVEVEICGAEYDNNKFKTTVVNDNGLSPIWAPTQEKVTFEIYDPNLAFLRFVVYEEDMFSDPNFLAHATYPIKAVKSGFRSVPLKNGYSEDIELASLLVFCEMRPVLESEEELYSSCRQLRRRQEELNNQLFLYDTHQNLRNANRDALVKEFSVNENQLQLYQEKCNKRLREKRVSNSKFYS
Description: Affinity selection mass spectrometry (ASMS). The format is binding. To be noted: dose range 100-0.05 μM, PLCγ2 400 nM.
Description: Using a dose range of 100-0.05 μM in 384 well low-volume polypropylene microtiter plates, a solution of PLCγ2 (final concentration 400 nM) was transferred to biochip arrays functionalized with a Tris-Ni-NTA-presenting self-assembled monolayer to immobilize the His-tagged protein. The arrays were incubated for 90 min in a humidified chamber to prevent evaporation and allow for specific immobilization of the His-PLCγ2 protein, along with any bound small molecules. The arrays were purified by a rapid <3 second gentle wash step with deionized ultra-filtered water and dried with compressed air. ASMS was performed using the reflector positive mode on an Aβ Sciex TOF-TOF 5800 System (Aβ Sciex, Framingham, MA).

Series [2] deals with MDCK. Description: MDCK permeability. The format is in vitro ADME. To be noted: estimate of intestinal absorption. The method, then:
(§1) Physicochemical and ADME properties were determined using the following assays: microsomal stability intrinsic clearance (Clint) in mouse liver microsomal solution, MDCK permeability (Papp), protein binding (fu) in mouse plasma, and kinetic solubility in pH 7.4 phosphate buffer (Table 7).

Series [3] can be described thus: Kinetic solubility in pH 7.4 phosphate buffer. It is filed as physicochemical. The method, then: as §1
Series [4] in a line: Protein binding in mouse plasma. The format is in vitro ADME. The method, then:
as §1

Series [5] relates to BV2 cells. Description: Microglial phagocytosis/cell health high-content assay, BV2 cells. It is filed as cell-based. Conditions: 60 μM, 48 hrs, compared to control. The method, then:
(§2) The assay introduced here is a simplified cellular imaging assay without any fixation and washing steps, while producing multiparameter measurements with high capacity using a 384-well plate format. The assay procedures include plating cells on day 1, incubating cell plates overnight before treating cells on day 2, adding pHrodo™-myelin/membrane debris to cell plates on day 3, and 20 hr later, staining cell nuclei with Hoechst-33342 for 30 min before performing high-content imaging on day 4. Three selected parameters are measured from cells: 1) mean total fluorescence intensity per cell of pHrodo™-myelin/membrane debris in phagocytosis vesicles to quantify phagocytosis; 2) cell counts per well to quantify treatment effects on proliferation and cell death; and 3) average nuclear intensity to quantify treatment-induced nuclear changes such as in apoptosis. The assay has been used on HMC3 cells (an immortalized human microglial cell line), BV2 cells (an immortalized mouse microglial cell line), and primary microglia isolated from mouse brains. For initial assay attempts, we recommend using HMC3 cells available from the ATCC.
(§3) All collected raw data are normalized to the untreated control with following formula: % of control=100×(X−Min)/(Max−Min). Factors in the formula are: X is raw data from a treated well, Max is an average measurement from pHrodo™-myelin seeded but untreated wells, and Min is an average measurement from no pHrodo™-myelin untreated wells. Normalized data are used for curve fitting that is done with the variable slope (four parameters) using the Prism software.
(§4) To ensure that the measurements reflect the steady state of compound treatment effects and cell health, the assay was set with a total compound treatment time of 48 hr, including pHrodo™-myelin/membrane debris seeding performed 20-24 hr after compound addition. […] Among many available quantitative measurements from the image analysis, we selected three parameters for the assay:
(§5) 1) The mean total intensity of phagocytosis vesicles/cell—to measure phagocytosis. There are multiple parameters generated from the image analysis, including phagocytosis vesicle area, number, and various fluorescence intensity measurements. Comparing these parameters, the total fluorescence intensity of vesicles/cell is the most sensitive one and was chosen for quantifying phagocytosis.
(§6) 2) The total cell counts—to measure overall cell viability, which is affected by proliferation and cell death. We chose to take 4 images/well (with the 10× objective lens) that cover about 50% of the total area of a well in a 384-well plate to represent cell count of the well.
(§7) 3) The average nuclear intensity—to measure drug-induced apoptosis, with high signal indicating nuclear condescension (a sign of early apoptosis) and low signal indicating DNA degradation (a sign of later apoptosis, when activated caspases digest DNA).
(§8) A phenotypic high-content imaging assay with simultaneous measurements of phagocytosis, cell number, and nuclear intensity was used to assess both cellular pharmacology and cell health. Model cell lines BV2 (immortalized mouse microglia, a gift from Dr. Michelle Block's laboratory at IUSM) and HMC3 (immortalized human microglia, obtained from ATCC, CRL-3304) were used to provide adequate throughput. Cells were cultured in DMEM GlutaMax media (ThermoFisher) containing 10% FBS and Pen-Strep in a 37° C. 5% CO2 incubator, plated in Corning Falcon 384 well Optilux Black and clear bottom plates: 400 cells/45 μl/well (BV2 cells), 600 cells/45 μl/well (HMC3 cells) and 2000 cell/45 μl/well (primary cells), and treated with 10× serially diluted compounds (60 μM-3 nM) for 48 hrs at 37° C. […]

For series [6], the target named is T2, PLCγ2-HiBit (Homo sapiens, UniProt P16885).
T2 construct: expressed in transfected cells; host or cells: HMC3 cells
T2 sequence (P16885 1-1265): T1 sequence (P16885 1-1265)
Description: Cellular thermal shift assay (SplitLuc CETSA), PLCγ2-HiBit in HMC3 cells. The format is cell-based. To be noted: for PLCγ2-HiBit %, percent luminescence at highest dose compared to control (DMSO): 100 μM; for PLCy2-HiBit % @100: Table 1. The source says: These compounds have been evaluated using a wide variety of assay classes namely target engagement utilizing cellular thermal shift assay (CETSA),^34 affinity selection mass spectrometry (ASMS),^35 biochemical activity employing the fluorogenic probe XY-69,^36 and cellular activity testing for phagocytosis. Cellular Thermal Shift Assays (CETSA) assess cellular target engagement by quantifying changes in protein thermal stability upon ligand binding to endogenous proteins in intact cells.^34 For SAR studies, a split Nano Luciferase (SplitLuc CETSA) version of the assay was utilized to provide sufficient throughput.^37,38 HMC3 cells were stably transfected with PLCγ2-HiBit to enable protein expression in a physiologically relevant cellular context. The thermal stability of this HiBit-labeled protein in intact cells was measured in the following two formats. In the initial screen, using 96-well plates, cells were treated with FBS analogs at a single concentration (100 μM) at 37° C. for 60 min and then exposed to a 3-minute isothermal heating step at 45.9° C. (experimentally determined Tm of PLCγ2-HiBit). Luminescence detection was then conducted with the Nano-Glo HiBit Lytic detection kit (Promega, Cat. N3040).^38 Compound treatment was performed in triplicate, and raw signals were normalized to the mean of the controls (in the same plate) as % of control. When the difference in compound-treated cells >control mean+3SD, the compound was considered positive and selected for further testing with dose-response CETSA. In the dose response CETSA, cells were treated with decreasing concentrations from 100 μM with 1:3 serial dilutions to generate an 8-point curve. An AC50 was calculated with the % of control data using a four-parameter logistic curve regression model, and the percent luminescence remaining at the highest concentration is also reported for the compounds when the difference from the DMSO control is greater than 3× the standard deviation (SD). Otherwise, an AC50 was not calculated.
(The HiBiT peptide binds its large partner to form an active luciferase.)

For series [7], the system named is HMC3 cells. The series is described as follows: Microglial phagocytosis/cell health high-content assay, HMC3 cells. Conditions: 60 μM, 48 hrs, compared to control. The format is cell-based. The procedure: as §2, §3, §4, §5, §6, §7, §8
In series [8] the test system is HiBit only. Description: Cellular thermal shift assay (CETSA), HiBit only control. It is filed as cell-based, human. Conditions: for HiBit only %, percent luminescence at highest dose with HiBit only compared to control (DMSO): 100 μM; for HiBit only % @100 μM: Table 1.
Series [9] in a line: Microsomal stability intrinsic clearance. The format is in vitro ADME. Conditions: mouse liver microsomes. The method, then:
as §1
(In general: Liver microsomes are vesicles of endoplasmic reticulum, rich in cytochrome P450 enzymes.)

Series [10] concerns HMC3 cells. The series is described as follows: Microglial phagocytosis/cell health high-content assay, HMC3 cells. To be noted: 24-hr treatment. It is filed as cell-based.

`Nc1ncnc2c1ncn2[C@@H]1O[C@H](COP(=O)(O)OP(=O)(O)OP(=O)(O)O)[C@@H](O)[C@H]1O` [ATP]: the “target engagement, signal against background” value in [1] was “clear separation from background signal”.
Regarding `Cc1cc(C)c(S(=O)(=O)Nc2cccc(C#N)c2)c(C)c1` [Compound 3], the “Papp, MDCK permeability” value in [2] is listed as 69.8 ×10−^6 cm/s. For the same compound, the Kinetic solubility in [3] was in the range of 81 to 100 µM. Also, the “fu, fraction unbound” value in series [4] is given as 0.0003. Moreover, in series [5], the “Ave. % Cell Count @ 60 uM BV2 cells” value is recorded as 85% and the “Ave. % Phagocytosis @ 60 uM BV2 cells” value is 113%. Further, in [6], the “PLCγ2-HiBit %, percent luminescence at highest dose compared to control (DMSO)” value (“PLCγ2-HiBit %, percent luminescence” below) is 96% and the “PLCy2-HiBit % @100” value is given as 96%. Moreover, in series [7], the “Ave. % Cell Count @ 60 uM HMC3 cells” value was 79% and the “Ave. % Phagocytosis @ 60 uM HMC3 cells” value is 111%.
Take `O=S(=O)(Nc1cccc(C(F)(F)F)c1)c1ccccc1` [Compound 4]: the “Papp, MDCK permeability” value in [2] is recorded as 79.7 ×10−^6 cm/s. Moreover, the Kinetic solubility in series [3] is >100 µM. Moreover, in series [8], the “HiBit only %, percent luminescence at highest dose with HiBit only compared to control (DMSO)” value was 82% and the “HiBit only % @100 μM” value is reported as 82%. The “Clint, intrinsic clearance” value in [9] was 607.66 µL/min/mg. In [5], the “Ave. % Cell Count @ 60 uM BV2 cells” value came out at 95% and the “Ave. % Phagocytosis @ 60 uM BV2 cells” value was 106%. Further, in series [6], the “PLCγ2-HiBit %, percent luminescence” value was 65% and the “PLCy2-HiBit % @100” value was 65%. In series [7], the “Ave. % Cell Count @ 60 uM HMC3 cells” value was 84% and the “Ave. % Phagocytosis @ 60 uM HMC3 cells” value came to 89%.
With `Cc1cc(C)c(S(=O)(=O)Nc2cccc(C(F)F)c2)c(C)c1` [Compound 7], the “Papp, MDCK permeability” value in series [2] is given as 37.4 ×10−^6 cm/s. Also, the Kinetic solubility in series [3] fell in the range of 41 to 60 µM. Further, in series [8], the “HiBit only %, percent luminescence at highest dose with HiBit only compared to control (DMSO)” value is recorded as 104% and the “HiBit only % @100 μM” value came out at 104%. Also, in series [5], the “Ave. % Cell Count @ 60 uM BV2 cells” value is 2% and the “Ave. % Phagocytosis @ 60 uM BV2 cells” value turned out to be 0%. In [6], the “PLCγ2-HiBit %, percent luminescence” value is 78% and the “PLCy2-HiBit % @100” value was determined as 78%. Also, in [7], the “Ave. % Cell Count @ 60 uM HMC3 cells” value turned out to be 6% and the “Ave. % Phagocytosis @ 60 uM HMC3 cells” value amounted to 0%.
One may read the EC50 as the concentration needed to bring the measured effect to its halfway point. Take `C=C1[C@@H](C)[C@H]2[C@H](Cc3ccccc3)NC(=O)[C@]23[C@H](OC(C)=O)/C=C/[C@@](C)(O)C(=O)[C@@H](C)C/C=C/[C@H]3[C@@H]1O` [Cytochalasin D]: the IC50 in [10] (read-out: cell count (inhibition of cell proliferation) IC50) was determined as 367 nM; in [10] (read-out: inhibition of phagocytosis IC50), 138 nM. In addition, the EC50 in series [10] (read-out: increase of nuclear intensity EC50) is 488 nM.
